Molecules are shown by their SMILES. Where only a bound is given, the exact number is not on record here.

For 24 compounds, inhibition results are on record in patent publication US8748426B2, “Inhibitors of diacylglycerol acyl transferase” (Piramal Enterprises Limited, priority 2009, dated 2014).

The experiment addresses T1, hDGAT1 (Homo sapiens, UniProt O75907).
T1 sequence (O75907 1-488): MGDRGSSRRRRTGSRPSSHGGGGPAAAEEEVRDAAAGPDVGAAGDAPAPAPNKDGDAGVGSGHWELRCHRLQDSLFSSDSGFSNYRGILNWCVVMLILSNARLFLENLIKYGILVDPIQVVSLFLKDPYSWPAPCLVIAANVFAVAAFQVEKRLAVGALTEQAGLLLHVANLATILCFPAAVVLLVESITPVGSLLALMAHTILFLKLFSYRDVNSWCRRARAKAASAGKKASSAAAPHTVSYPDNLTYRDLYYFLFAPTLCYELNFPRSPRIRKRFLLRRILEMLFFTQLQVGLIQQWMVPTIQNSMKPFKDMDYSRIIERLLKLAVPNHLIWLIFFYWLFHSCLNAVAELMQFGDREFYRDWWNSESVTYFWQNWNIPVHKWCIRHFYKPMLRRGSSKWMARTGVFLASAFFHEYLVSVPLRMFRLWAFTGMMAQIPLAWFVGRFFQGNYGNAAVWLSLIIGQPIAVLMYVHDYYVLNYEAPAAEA
Briefly: In-vitro DGAT1 assay (14C oleoyl CoA, hDGAT1 microsomes from Sf9 cells). As to conditions: read-out: % Inhibition of hDGAT1.

Description: Sf9 cells were seeded in spinner flasks on day 0 at a cell density of 1×10^6 and infected on day 1 with hDGAT1 baculovirus at a multiplicity of infection (MOI) of 5 and a cell density of 2×10^6. On day 3 (or 66-72 h), cells were harvested and centrifuged at 2500×g for 10 min. Pellet was resuspended in lysis buffer (100 mM sucrose, 50 mM KCl, 40 mM KH2PO4, 30 mM EDTA, pH 7.2) and passed through 21-gauge needle approximately 10 times. […] The supernatant was subjected to centrifugation at 35,000 rpm in a Beckman Ti-45 rotor at 4° C. for 1 h. The resultant pellet containing the microsomes wasere resuspended overnight in 1 mL of lysis buffer and total protein concentration was estimated using Bradford Reagent. Microsomes were aliquoted and stored at −80° C.
Frozen aliquots of hDGAT1 containing microsomes were thawed (5-10 mg/mL total protein) on ice and diluted to a working stock of 1 mg/mL with DGAT Assay Buffer (DAB).
The assay was performed in duplicates in a reaction volume of 100 μL. […] Procedure:
The reaction was started by the addition of 2.5 μL of 1 mg/mL of microsomes (iv) to the mixture and incubated at 37° C. for 10 min. […] The mixture was vortexed and the triglycerides formed were extracted into the organic heptane phase.

What is called inhibition is the share of the control response that was lost under treatment. Regarding `CC(C)[C@@H](C(=O)O)N1Cc2ccc(-c3ccc(NC(=O)c4cccc(C(F)(F)F)c4F)cc3)cc2C1=O` [Example 194, (S)-2-(6-(4-(2-Fluoro-3-(trifluoromethyl)benzamido)phenyl)-1-oxoisoindolin-2-yl)-3-methylbutanoic acid], the inhibition at 1 µM is 10 to 50%.

Consider `CC(C)[C@@H](C(=O)O)N1Cc2ccc(-c3ccc(NC(=O)c4ccc(C(F)(F)F)c(F)c4)cc3)cc2C1=O` [Example 196, (S)-2-(6-(4-(3-Fluoro-4-(trifluoromethyl)benzamido)phenyl)-1-oxoisoindolin-2-yl)-3-methylbutanoic acid], for which the inhibition at 1 µM was above 50%. As to `CC(C)[C@@H](C(=O)O)N1Cc2ccc(-c3ccc(NC(=O)c4ccc(F)cc4C(F)(F)F)cc3)cc2C1=O` [Example 198, (S)-2-(6-(4-(4-Fluoro-2-(trifluoromethyl)benzamido)phenyl)-1-oxoisoindolin-2-yl)-3-methylbutanoic acid], the inhibition at 1 µM lay in the range of 10 to 50%. The figure for `CC(C)[C@@H](C(=O)O)N1Cc2ccc(-c3ccc(NC(=O)c4ccccc4C(F)(F)F)cc3)cc2C1=O` [Example 200, (S)-3-Methyl-2-(1-oxo-6-(4-(2-(trifluoromethyl)benzamido)phenyl)isoindolin-2-yl)butanoic acid] is 10 to 50%; for `CCOc1ccccc1C(=O)Nc1ccc(-c2ccc3c(c2)C(=O)N([C@H](C(=O)O)C(C)C)C3)cc1` [Example 202, (S)-2-(6-(4-(2-Ethoxybenzamido)phenyl)-1-oxoisoindolin-2-yl)-3-methylbutanoic acid] it is above 50%. As for `CC(C)[C@@H](C(=O)O)N1Cc2ccc(-c3ccc(NC(=O)c4cccnc4)cc3)cc2C1=O` [Example 207, (S)-3-Methyl-2-(6-(4-(nicotinamido)phenyl)-1-oxoisoindolin-2-yl)butanoic acid], the inhibition at 1 µM is above 50%.

Regarding `CC(C)[C@@H](C(=O)O)N1Cc2ccc(-c3ccc(NC(=O)c4cccnc4Cl)cc3)cc2C1=O` [Example 209, (S)-2-(6-(4-(2-Chloronicotinamido)phenyl)-1-oxoisoindolin-2-yl)-3-methyl butanoic acid], the inhibition at 1 µM was above 50%. The figure for `CC(C)[C@@H](C(=O)O)N1Cc2ccc(-c3ccc(NC(=O)c4ccc(N5CCOCC5)nc4)cc3)cc2C1=O` [Example 213, (S)-3-Methyl-2-(6-(4-(6-morpholinonicotinamido)phenyl)-1-oxoisoindolin-2-yl)butanoic acid] is 10 to 50%; for `CC(C)[C@@H](C(=O)O)N1Cc2ccc(-c3ccc(NC(=O)c4ccc(N5CCCCC5)nc4)cc3)cc2C1=O` [Example 215, (S)-3-Methyl-2-(1-oxo-6-(4-(6-(piperidin-1-yl)nicotinamido)phenyl)isoindolin-2-yl)butanoic acid] it is above 50%; for `CC(C)[C@@H](C(=O)O)N1Cc2ccc(-c3ccc(NC(=O)c4ccc(N5CCCC5)nc4)cc3)cc2C1=O` [Example 217, (S)-3-Methyl-2-(1-oxo-6-(4-(6-(pyrrolidin-1-yl)nicotinamido)phenyl)isoindolin-2-yl)butanoic acid] it is above 50%. Under `CC(C)[C@@H](C(=O)O)N1Cc2cc(-c3ccc(NC(=O)Nc4ccc(F)cc4)cc3)ccc2C1=O` [Example 225, (S)-2-(5-(4-(3-(4-Fluorophenyl)ureido)phenyl)-1-oxoisoindolin-2-yl)-3-methylbutanoic acid] stands above 50%. Under `CC(C)[C@@H](C(=O)O)N1Cc2cc(-c3ccc(NC(=O)Nc4ccccc4F)cc3)ccc2C1=O` [Example 227, (S)-2-(5-(4-(3-(2-Fluorophenyl)ureido)phenyl)-1-oxoisoindolin-2-yl)-3-methyl butanoic acid] stands above 50%.

As to `CC(C)[C@@H](C(=O)O)N1Cc2cc(-c3ccc(NC(=O)Nc4cccc(F)c4)cc3)ccc2C1=O` [Example 229, (S)-2-(5-(4-(3-(3-Fluorophenyl)ureido)phenyl)-1-oxoisoindolin-2-yl)-3-methyl butanoic acid], the inhibition at 1 µM is above 50%. The figure for `CC(C)[C@@H](C(=O)O)N1Cc2cc(-c3ccc(NC(=O)Nc4ccccc4)cc3)ccc2C1=O` [Example 231, (S)-3-Methyl-2-(1-oxo-5-(4-(3-phenylureido)phenyl)isoindolin-2-yl)butanoic acid] is 10 to 50%; for `CC(C)[C@@H](C(=O)O)N1Cc2cc(-c3ccc(NC(=O)NCc4ccccc4)cc3)ccc2C1=O` [Example 233, (S)-2-(5-(4-(3-Benzylureido)phenyl)-1-oxoisoindolin-2-yl)-3-methylbutanoic acid] it is 10 to 50%; for `CC(C)[C@@H](C(=O)O)N1Cc2cc(-c3ccc(NC(=O)NC4CCCCC4)cc3)ccc2C1=O` [Example 235, (S)-2-(5-(4-(3-Cyclohexylureido)phenyl)-1-oxoisoindolin-2-yl)-3-methyl butanoic acid] it is 10 to 50%.

For `CC(C)[C@@H](C(=O)O)N1Cc2cc(-c3ccc(NC(=O)Nc4ccc(F)cc4F)cc3)ccc2C1=O` [Example 237, (S)-2-(5-(4-(3-(2,4-Difluorophenyl)ureido)phenyl)-1-oxoisoindolin-2-yl)-3-methylbutanoic acid], the inhibition at 1 µM was above 50%. With `CC(C)[C@@H](C(=O)O)N1Cc2cc(-c3ccc(NC(=O)Nc4ccc(F)c(F)c4)cc3)ccc2C1=O` [Example 239, (S)-2-(5-(4-(3-(3,4-Difluorophenyl)ureido)phenyl)-1-oxoisoindolin-2-yl)-3-methylbutanoic acid], the inhibition at 1 µM was above 50%.

On to `Cc1ccc(NC(=O)Nc2ccc(-c3ccc4c(c3)CN([C@H](C(=O)O)C(C)C)C4=O)cc2)cc1` [Example 241, (S)-3-Methyl-2-(1-oxo-5-(4-(3-p-tolylureido)phenyl)isoindolin-2-yl)butanoic acid], for which the inhibition at 1 µM was above 50%.

`Cc1cccc(NC(=O)Nc2ccc(-c3ccc4c(c3)CN([C@H](C(=O)O)C(C)C)C4=O)cc2)c1` [Example 243, (S)-3-Methyl-2-(1-oxo-5-(4-(3-m-tolylureido)phenyl)isoindolin-2-yl)butanoic acid]: the inhibition at 1 µM was above 50%. The figure for `CC(C)[C@@H](C(=O)O)N1Cc2cc(-c3ccc(NC(=O)Nc4ccc(C(F)(F)F)cc4)cc3)ccc2C1=O` [Example 245, (S)-3-Methyl-2-(1-oxo-5-(4-(3-(4-(trifluoromethyl)phenyl)ureido)phenyl)isoindolin-2-yl)butanoic acid] is above 50%. The figure for `CC(C)[C@@H](C(=O)O)N1Cc2cc(-c3ccc(NC(=O)Nc4cccc(C(F)(F)F)c4)cc3)ccc2C1=O` [Example 247, (S)-3-Methyl-2-(1-oxo-5-(4-(3-(3-(trifluoromethyl)phenyl)ureido)phenyl)isoindolin-2-yl)butanoic acid] is above 50%. Under `COc1ccc(NC(=O)Nc2ccc(-c3ccc4c(c3)CN([C@H](C(=O)O)C(C)C)C4=O)cc2)cc1` [Example 249, (S)-2-(5-(4-(3-(4-Methoxyphenyl)ureido)phenyl)-1-oxoisoindolin-2-yl)-3-methylbutanoic acid] stands above 50%; under `COc1cccc(NC(=O)Nc2ccc(-c3ccc4c(c3)CN([C@H](C(=O)O)C(C)C)C4=O)cc2)c1` [Example 251, (S)-2-(5-(4-(3-(3-Methoxyphenyl)ureido)phenyl)-1-oxoisoindolin-2-yl)-3-methylbutanoic acid], above 50%.
